test system: AGS cells (KRAS^G12D); assay: Detection of cell proliferation in vitro by MTT/MTS method (cell activity experiment); type: cell-based; conditions: AGS cells; MTT/MTS; 3 days of drug treatment; read-out: AGS IC50
In short: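 KRAS G12D AGS cells seeded at 1000 per well, compound added 24 h later, 0.5% final DMSO. Viability read after 3 days of treatment by MTT (solubilised in DMSO) or MTS, 4 h, absorbance 490 nm. IC50 from dose–response curves versus DMSO control.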

`C#Cc1c(F)ccc2cc(O)cc(-c3ccc4c(N5C[C@H]6CC[C@@H](C5)[C@@H]6S(=O)(=O)C(F)(F)F)nc(OC[C@@]56CCCN5C[C@H](F)C6)nc4c3F)c12` [Example 132, 5-ethynyl-6-fluoro-4-(8-fluoro-2-(((2R,7aS)-2-fluorotetrahydro-1H-pyrrolizin-7a(5H)-yl)methoxy)-4-((1R,5S, 8R)-8-((trifluoromethyl)sulfonyl)-3-azabicyclo [3.2.1]octan-3-yl)quinazolin-7-yl) naphthalen-2-ol] showed an IC50 greater than 2500 nM.

same assay, conditions: Homo sapiens, AGS, 72 h, AGS cells; MTT/MTS; 3 days of drug treatment; read-out: AGS IC50

First: C#Cc1c(F)ccc2cc(O)cc(-c3ccc4c(N5CC(C(C)(C)N)C5)nc(OC[C@@]56CCCN5C[C@H](F)C6)nc4c3F)c12 [Example 212, 4-(4-(3-(2-aminopropan-2-yl)azetidin-1-yl)-8-fluoro-2-(((2R,7aS)-2-fluorotetrahydro-1H-pyrrolizin-7a(5H)-yl)methoxy)quinazolin-7-yl)-5-ethynyl-6-fluoronaphthalen-2-ol]
Second: C#Cc1c(F)ccc2cc(O)cc(-c3ccc4c(N5C[C@H]6CC[C@@H](C5)N6)nc(OC[C@@]56CCCN5C[C@H](F)C6)nc4c3O)c12 [Example 328, 4-((1R,5S)-3,8-diazabicyclo[3.2.1]octan-3-yl)-7-(8-ethynyl-7-fluoro-3-hydroxynaphthalen-1-yl)-2-(((2R,7aS)-2-fluorotetrahydro-1H-pyrrolizin-7a(5H)-yl)methoxy)quinazolin-8-ol]
The IC50 of the first is 21-fold lower: 419 nM for the first, 8910 nM for the second. The first is the more potent here.

Compared with `C#Cc1c(F)ccc2cc(O)cc(-c3ccc4c(NCC5(N(C)C)CCC5)nc(OC[C@@]56CCCN5C[C@H](F)C6)nc4c3F)c12` [Example 430, 4-(4-(((1-(dimethylamino)cyclobutyl)methyl)amino)-8-fluoro-2-(((2R,7aS)-2-fluorotetrahydro-1H-pyrrolizin-7a(5H)-yl)methoxy)quinazolin-7-yl)-5-ethynyl-6-fluoronaphthalen-2-ol], `C#Cc1c(F)ccc2cc(O)cc(-c3ccc4c(N5CCC6(CCCN6)CC5)nc(OC[C@@]56CCCN5C[C@H](F)C6)nc4c3F)c12` [Example 90, 5-ethynyl-6-fluoro-4-(8-fluoro-2-(((2R,7aS)-2-fluorotetrahydro-1H-pyrrolizin-7a(5H)-yl)methoxy)-4-(1,8-diazaspiro[4,5]decan-8-yl)quinazolin-7-yl)naphthalen-2-ol] is 250-fold higher in IC50: 35 nM for the first, 8920 nM for the second.

Compared with `C#Cc1cccc2cc(O)cc(-c3ccc4c(N5C[C@H]6CC[C@@H](C5)N6)nc(OC[C@@]56CCCN5C[C@H](F)C6)nc4c3F)c12` [Example 89, 4-(4-((1R,5S)-3,8-diazabicyclo[3.2.1]octan-3-yl)-8-fluoro-2-(((2R,7aS)-2-fluorotetrahydro-1H-pyrrolizin-7a(5H)-yl)methoxy)quinazolin-7-yl)-5-ethynylnaphthalen-2-ol], `C#Cc1cccc2cc(O)cc(-c3ccc4c(N5C[C@H]6CC[C@@H](C5)N6)nc(OC[C@@]56CCCN5C[C@H](F)C6)nc4n3)c12` [Example 144, 4-(4-((1R,5S)-3,8-diazabicyclo[3.2.1]octan-3-yl)-2-(((2R,7aS)-2-fluorotetrahydro-1H-pyrrolizin-7a(5H)-yl)methoxy)pyrido[2,3-d]pyrimidin-7-yl)-5-ethynylnaphthalen-2-ol] is higher in IC50: 1.5 nM for the first, greater than 2500 nM for the second.

First: CC1(C)CCc2cc(O)cc(-c3ncc4c(N5C[C@H]6CC[C@@H](C5)N6)nc(OC[C@@]56CCCN5C[C@H](F)C6)nc4c3F)c21 [Example 299, 7-(4-((1R,5S)-3,8-diazabicyclo[3.2.1]octan-3-yl)-8-fluoro-2-(((2R,7aS)-2-fluorotetrahydro-1H-pyrrolizin-7a(5H)-yl)methoxy)pyrido[4,3-d]pyrimidin-7-yl)-1,1-dimethyl-2,3-dihydro-1H-inden-5-ol]
Second: Oc1cc2c(c(-c3ncc4c(N5C[C@H]6CC[C@@H](C5)N6)nc(OC[C@@]56CCCN5C[C@H](F)C6)nc4c3F)c1)C1(CC2)CC1 [Example 255, 7′-(4-((1R,5S)-3,8-diazabicyclo[3.2.1]octan-3-yl)-8-fluoro-2-(((2R,7aS)-2-fluorotetrahydro-1H-pyrrolizin-7a(5H)-yl)methoxy)pyrido[4,3-d]pyrimidin-7-yl)-2′,3′-dihydrospiro[cyclopropane-1,1′-inden]-5′-ol]
The IC50 of the first is 6-fold higher: 945 nM for the first, 157 nM for the second.

`CCc1cccc2cc(O)cc(-c3ncc4c(N5C[C@H]6CC[C@@H](C5)S6)nc(OC[C@@]56CCCN5C[C@H](F)C6)nc4c3F)c12` [Example 25, 4-(4-((1R,5S)-8-thia-3-azabicyclo[3.2.1]octan-3-yl)-8-fluoro-2-(((2R, 7aS)-2-fluorotetrahydro-1H-pyrrolizin-7a(5H)-yl)methoxy)pyrido[4,3-d]pyrimidin-7-yl)-5-ethylnaphthalen-2-ol] and `Oc1cc(-c2ncc3c(N4C[C@H]5CC[C@@H](C4)S5)nc(OC[C@@]45CCCN4C[C@H](F)C5)nc3c2F)c2c(F)c(F)ccc2c1` [Example 27, 4-(4-((1R,5S)-8-thia-3-azabicyclo[3.2.1]octan-3-yl)-8-fluoro-2-(((2R,7aS)-2-fluorotetrahydro-1H-pyrrolizin-7a(5H)-yl)methoxy)pyrido[4,3-d]pyrimidin-7-yl)-5,6-difluoronaphthalen-2-ol] are within 1.5-fold of each other in IC50: 290 nM for the first, 295 nM for the second.

Going from `C#Cc1c(F)ccc2cc(O)cc(-c3c4c(c5c(N6C[C@H]7CC[C@@H](C6)N7)nc(OC[C@@]67CCCN6C[C@H](F)C7)nc5c3F)OCO4)c12` [Example 393, 4-(9-((1R,5S)-3,8-diazabicyclo[3.2.1]octan-3-yl)-5-fluoro-7-(((2R,7aS)-2-fluorotetrahydro-1H-pyrrolizin-7a(5H)-yl)methoxy)-[1,3]dioxolo[4,5-f]quinazolin-4-yl)-5-ethynyl-6-fluoronaphthalen-2-ol] to `Oc1cc2c(c(-c3c4c(c5c(N6C[C@H]7CC[C@@H](C6)N7)nc(OC[C@@]67CCCN6C[C@H](F)C7)nc5c3F)OCO4)c1)CCCC2` [Example 390, 4-(9-((1R,5S)-3,8-diazabicyclo[3.2.1]octan-3-yl)-5-fluoro-7-(((2R,7aS)-2-fluorotetrahydro-1H-pyrrolizin-7a(5H)-yl)methoxy)-[1,3]dioxolo[4,5-f]quinazolin-4-yl)-5,6,7,8-tetrahydronaphthalen-2-ol], the IC50 rises from 70 nM to 150 nM (2.1-fold). The first is the more potent here.

Going from `CC1CCCc2cc(O)cc(-c3ncc4c(NCC5(N(C)C)CCC5)nc(OC[C@@]56CCCN5C[C@H](F)C6)nc4c3F)c21` (stereo partly drawn) [Example 421, 4-(4-(((1-(dimethylamino)cyclobutyl)methyl)amino)-8-fluoro-2-(((2R,7aS)-2-fluorotetrahydro-1H-pyrrolizin-7a(5H)-yl)methoxy)pyrido[4,3-d]pyrimidin-7-yl)-5-methyl-5,6,7,8-tetrahydronaphthalen-2-ol] to `OCC1CCc2cc(O)cc(-c3ncc4c(N5C[C@H]6CC[C@@H](C5)N6)nc(OC[C@@]56CCCN5C[C@H](F)C6)nc4c3F)c21` (stereo partly drawn) [Example 265, 7-(4-((1R,5S)-3,8-diazabicyclo[3.2.1]octan-3-yl)-8-fluoro-2-(((2R,7aS)-2-fluorotetrahydro-1H-pyrrolizin-7a(5H)-yl)methoxy)pyrido[4,3-d]pyrimidin-7-yl)-1-(hydroxymethyl)-2,3-dihydro-1H-inden-5-ol], the IC50 rises from 26 nM to greater than 10000 nM. The first is the more potent here.

Going from `O=C1CCCc2cc(O)cc(-c3ccc4c(N5C[C@H]6CC[C@@H](C5)N6)nc(OC[C@@]56CCCN5C[C@H](F)C6)nc4c3F)c21` [Example 296, 8-(4-((1R,5S)-3,8-diazabicyclo[3.2.1]octan-3-yl)-8-fluoro-2-(((2R,7aS)-2-fluorotetrahydro-1H-pyrrolizin-7a(5H)-yl)methoxy)quinazolin-7-yl)-6-hydroxy-3,4-dihydronaphthalen-1(2H)-one] to `CC1CCCc2cc(O)cc(-c3ccc4c(N5C[C@H]6CC[C@@H](C5)N6)nc(OC[C@@]56CCCN5C[C@H](F)C6)nc4c3F)c21` (stereo partly drawn) [Example 282, 4-(4-((1R,5S)-3,8-diazabicyclo[3.2.1]octan-3-yl)-8-fluoro-2-(((2R,7aS)-2-fluorotetrahydro-1H-pyrrolizin-7a(5H)-yl)methoxy)quinazolin-7-yl)-5-methyl-5,6,7,8-tetrahydronaphthalen-2-ol], the IC50 falls from greater than 2500 nM to 15 nM. The second is the more potent here.

`CC1OCCc2cc(O)cc(C3=C(F)c4nc(OC[C@@]56CCCN5C[C@H](F)C6)nc(N5C[C@H]6CC[C@@H](C5)N6)c4C4=NCCN43)c21` (stereo partly drawn) [Example 410, 8-(10-((1R,5S)-3,8-diazabicyclo[3.2.1]octan-3-yl)-6-fluoro-8-(((2R,7aS)-2-fluorotetrahydro-1H-pyrrolizin-7a(5H)-yl)methoxy)-2,3-dihydroimidazo[1′,2′:1,2]pyrido[4,3-d]pyrimidin-5-yl)-1-methylisochroman-6-ol] and `C#Cc1cc2c(N3C[C@H]4CC[C@@H](C3)N4)nc(OC[C@@]34CCCN3C[C@H](F)C4)nc2c(F)c1-c1cc(O)cc2c1C(CC)C1CC21` (stereo partly drawn) [Example 372, 5-(4-((1R,5S)-3,8-diazabicyclo[3.2.1]octan-3-yl)-6-ethynyl-8-fluoro-2-(((2R,7aS)-2-fluorotetrahydro-1H-pyrrolizin-7a(5H)-yl)methoxy)quinazolin-7-yl)-6-ethyl-1,1a,6,6a-tetrahydrocyclopropa[a]inden-3-ol] are within 1.5-fold of each other in IC50: 75 nM for the first, 65 nM for the second.

Compared with `Oc1cc(-c2ccc3c(N4C[C@H]5CC[C@@H](C4)N5)nc(OCC4(CN5CCCC5)CC4)nc3c2F)c2c(F)cccc2c1` [Example 102, 4-(4-((1R,5S)-3,8-diazabicyclo[3.2.1]octan-3-yl)-8-fluoro-2-((1-(pyrrolidin-1-ylmethyl)cyclopropyl)methoxy)quinazolin-7-yl)-5-fluoronaphthalen-2-ol], `O=C(CO)N1CCC(c2nc(OC[C@@]34CCCN3C[C@H](F)C4)nc3c(F)c(-c4cc(O)cc5ccc(F)c(F)c45)ncc23)C1` (stereo partly drawn) [Example 85, 1-(3-(7-(7,8-difluoro-3-hydroxynaphthalen-1-yl)-8-fluoro-2-(((2R,7aS)-2-fluorotetrahydro-1H-pyrrolizin-7a(5H)-yl)methoxy)pyrido[4,3-d]pyrimidin-4-yl)pyrrolidin-1-yl)-2-hydroxyethan-1-one] is higher in IC50: 33 nM for the first, greater than 1000 nM for the second.

Reference: patent US20240300980A1, “HETEROCYCLIC COMPOUNDS AS KRAS INHIBITOR, AND PREPARATION THEREFOR AND USE THEREOF IN TREATMENT” (SHANGHAI KECHOW PHARMA, INC., priority 2021, published 2024)
